# Data reported in ChEMBL document CHEMBL3112574, “Substituted piperidines as HDM2 inhibitors” (Bioorg Med Chem Lett, 2014).
# Legend:
# [1] = target: Tumour suppressor p53/oncoprotein Mdm2 (Homo sapiens, UniProt Q00987); test: Inhibition of human MDM2/p53 interaction by fluorescence polarization assay; format: protein assay
# [2] = Cmax in mouse at 20 mg/kg, po; format: ADME, organism-based; design: dose 20 mg/kg, route oral; details: in vivo
# [3] = AUC (0 to 24 hrs) in mouse at 20 mg/kg, iv; format: ADME, organism-based; design: time < 24 hr, dose 20 mg/kg, route intravenous; details: plasma
# Cytochrome P450 2C9 [4] = target: T1, Cytochrome P450 2C9 (Homo sapiens, UniProt P11712); test: Inhibition of CYP2C9 (unknown origin) compound co-incubated with substrate; format: ADME
# Cytochrome P450 2D6 [5] = target: T2, Cytochrome P450 2D6 (Homo sapiens, UniProt P10635); test: Inhibition of CYP2D6 (unknown origin) compound preincubated with substrate; format: ADME
# [6] = Oral bioavailability in mouse at 20 mg/kg; format: ADME, organism-based; details: in vivo
# [7] = Tmax in mouse at 20 mg/kg, po; format: ADME, organism-based; design: dose 20 mg/kg, route oral; details: in vivo
# Cytochrome P450 2D6 [8] = target: T2, Cytochrome P450 2D6; test: Inhibition of CYP2D6 (unknown origin) compound co-incubated with substrate; format: ADME
# [9] = AUC (0 to 24 hrs) in mouse at 20 mg/kg, po; format: ADME, organism-based; design: time < 24 hr, dose 20 mg/kg, route oral; details: plasma
# Cytochrome P450 2C9 [10] = target: T1, Cytochrome P450 2C9; test: Inhibition of CYP2C9 (unknown origin) compound preincubated with substrate; format: ADME
# Chain of Tumour suppressor p53/oncoprotein Mdm2 (P04637 whole entry): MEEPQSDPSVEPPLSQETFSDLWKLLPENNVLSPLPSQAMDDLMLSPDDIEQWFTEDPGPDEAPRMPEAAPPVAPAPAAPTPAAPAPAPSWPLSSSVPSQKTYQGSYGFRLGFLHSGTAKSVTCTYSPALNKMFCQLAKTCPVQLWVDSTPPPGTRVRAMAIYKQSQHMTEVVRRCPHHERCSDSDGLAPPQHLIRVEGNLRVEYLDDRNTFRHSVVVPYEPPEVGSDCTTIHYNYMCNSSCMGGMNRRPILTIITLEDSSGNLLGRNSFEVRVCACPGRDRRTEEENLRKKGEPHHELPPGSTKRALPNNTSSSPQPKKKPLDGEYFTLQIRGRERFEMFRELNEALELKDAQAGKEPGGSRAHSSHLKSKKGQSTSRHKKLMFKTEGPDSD
# Chain of Tumour suppressor p53/oncoprotein Mdm2 (Q00987 whole entry): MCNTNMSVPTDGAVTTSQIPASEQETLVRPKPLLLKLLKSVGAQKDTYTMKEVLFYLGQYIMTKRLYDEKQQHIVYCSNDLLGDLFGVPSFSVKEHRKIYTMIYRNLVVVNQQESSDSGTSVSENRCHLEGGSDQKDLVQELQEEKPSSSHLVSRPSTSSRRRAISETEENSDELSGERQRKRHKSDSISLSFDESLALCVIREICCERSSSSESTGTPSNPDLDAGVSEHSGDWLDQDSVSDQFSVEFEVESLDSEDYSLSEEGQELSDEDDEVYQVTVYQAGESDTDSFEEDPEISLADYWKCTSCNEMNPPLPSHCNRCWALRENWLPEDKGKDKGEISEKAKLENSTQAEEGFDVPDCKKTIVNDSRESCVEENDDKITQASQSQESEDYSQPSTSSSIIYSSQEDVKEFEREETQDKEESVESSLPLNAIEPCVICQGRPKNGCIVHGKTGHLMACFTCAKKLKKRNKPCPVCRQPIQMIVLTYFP
# T1 sequence (P11712 whole entry): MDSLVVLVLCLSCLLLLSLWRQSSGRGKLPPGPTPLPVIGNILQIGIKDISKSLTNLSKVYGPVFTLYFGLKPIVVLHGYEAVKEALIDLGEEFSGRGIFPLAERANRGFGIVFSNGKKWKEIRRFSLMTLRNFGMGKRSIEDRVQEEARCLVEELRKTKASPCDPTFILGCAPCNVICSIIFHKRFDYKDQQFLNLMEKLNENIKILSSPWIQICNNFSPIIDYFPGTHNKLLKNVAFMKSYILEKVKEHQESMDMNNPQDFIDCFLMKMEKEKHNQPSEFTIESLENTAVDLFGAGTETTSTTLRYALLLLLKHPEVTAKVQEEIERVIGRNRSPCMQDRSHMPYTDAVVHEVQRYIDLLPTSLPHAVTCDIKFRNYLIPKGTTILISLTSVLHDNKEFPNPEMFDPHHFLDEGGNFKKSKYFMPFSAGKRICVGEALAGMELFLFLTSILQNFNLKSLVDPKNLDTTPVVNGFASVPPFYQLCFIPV
# T2 sequence (P10635 whole entry): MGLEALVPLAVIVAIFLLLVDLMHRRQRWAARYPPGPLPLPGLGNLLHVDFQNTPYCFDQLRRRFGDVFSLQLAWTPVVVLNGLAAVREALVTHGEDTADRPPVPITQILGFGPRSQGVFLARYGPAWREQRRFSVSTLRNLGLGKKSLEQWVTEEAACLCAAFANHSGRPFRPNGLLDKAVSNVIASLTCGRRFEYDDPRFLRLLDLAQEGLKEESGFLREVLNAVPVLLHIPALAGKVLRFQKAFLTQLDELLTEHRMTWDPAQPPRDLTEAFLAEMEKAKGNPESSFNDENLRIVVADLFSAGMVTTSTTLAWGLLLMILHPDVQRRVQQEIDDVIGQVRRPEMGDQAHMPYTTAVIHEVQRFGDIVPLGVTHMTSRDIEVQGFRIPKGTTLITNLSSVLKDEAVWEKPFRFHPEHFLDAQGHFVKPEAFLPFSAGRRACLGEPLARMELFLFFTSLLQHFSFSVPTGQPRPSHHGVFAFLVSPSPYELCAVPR
Structure (SMILES),IC50 [1] [µM],also measured
O=C(c1cnccc1C(F)(F)F)N1CCCC(Oc2ccc(C(F)(F)F)cc2)(C(=O)N2CCc3ccccc3C2)C1 (centres undefined),1.4,–
CN(C)CCC(=O)Nc1ccccc1N1CCN(C(=O)C2(Oc3ccc(C(F)(F)F)cc3)CCCN(C(=O)c3cnccc3C(F)(F)F)C2)CC1 (centres undefined),0.59,–
O=C(NCCc1ccccc1)C1(Oc2ccc(C(F)(F)F)cc2)CCCN(C(=O)C2(c3ccc(Cl)cc3)CC2)C1 (centres undefined),1.4,–
O=C(N1CCN(c2ccccn2)CC1)C1(Oc2ccc(C(F)(F)F)cc2)CCCN(CC2CCCCC2)C1 (centres undefined),5.1,–
CC(=O)N1CCN(C(=O)C2(Oc3ccc(C(F)(F)F)cc3)CCCN(C(=O)c3cnccc3C(F)(F)F)C2)CC1 (centres undefined),36,–
O=C(N1CCN(c2ccccn2)CC1)C1(Oc2ccc(C(F)(F)F)cc2)CCCN(C(=O)C2(c3ccc(Cl)cc3)CC2)C1 (centres undefined),1.9,–
"COCCOc1ccccc1N1CCN(C(=O)C2(Oc3ccc(C(F)(F)F)cc3)CCCN(C(=O)c3cnccc3C(F)(F)F)C2)CC1.Cl (single isomer, unassigned)",–,Cmax [2]: 700 nM; AUC(0-t) at 24 h [3]: 3.4 µM·h; IC50 (Cytochrome P450 2C9 [4]): > 30 µM; IC50 (Cytochrome P450 2D6 [5]): > 30 µM; bioavailability [6]: 32%; Tmax [7]: 1 h; IC50 (Cytochrome P450 2D6 [8]): > 30 µM; AUC(0-t) at 24 h [9]: 1.1 µM·h; IC50 (Cytochrome P450 2C9 [10]): > 30 µM
O=C(c1cnccc1C(F)(F)F)N1CCCC(Oc2ccc(C(F)(F)F)cc2)(C(=O)N2CCN(C3CCCCC3)CC2)C1 (centres undefined),4.2,–
COc1cccc(N2CCN(C(=O)C3(Oc4ccc(C(F)(F)F)cc4)CCCN(C(=O)c4cnccc4C(F)(F)F)C3)CC2)c1 (centres undefined),> 50,–
CC(=O)Nc1ccccc1N1CCN(C(=O)C2(Oc3ccc(C(F)(F)F)cc3)CCCN(C(=O)c3cnccc3C(F)(F)F)C2)CC1 (centres undefined),0.38,–
Cc1ccc(OC2(C(=O)N3CCN(c4ccccn4)CC3)CCCN(C(=O)c3cnccc3C(F)(F)F)C2)cc1 (centres undefined),1.5,–
O=C(c1cnccc1C(F)(F)F)N1CCCC(Oc2ccccc2Cl)(C(=O)N2CCN(c3ccccn3)CC2)C1 (centres undefined),21,–
O=C(c1cnccc1C(F)(F)F)N1CCCC(Oc2ccc(C(F)(F)F)cc2)(C(=O)N2CCN(c3ccccc3)CC2)C1 (centres undefined),2.8,–
O=C(c1cnccc1C(F)(F)F)N1CCCC(Oc2ccc(C(F)(F)F)cc2)(C(=O)N2CC=C(c3ccccc3)CC2)C1 (centres undefined),1.4,–
O=C(c1cnccc1C(F)(F)F)N1CCCC(Oc2ccc(C(F)(F)F)cc2)(C(=O)NCCc2ccccc2)C1 (centres undefined),3.5,–
O=C(N1CCN(c2ccccn2)CC1)C1(Oc2ccc(C(F)(F)F)cc2)CCCN(S(=O)(=O)c2ccccc2C(F)(F)F)C1 (centres undefined),41,–
CN(C)CCCC(=O)Nc1ccccc1N1CCN(C(=O)C2(Oc3ccc(C(F)(F)F)cc3)CCCN(C(=O)c3cnccc3C(F)(F)F)C2)CC1 (centres undefined),1.08,–
CC(C)(C)CC(=O)N1CCCC(Oc2ccc(C(F)(F)F)cc2)(C(=O)N2CCN(c3ccccn3)CC2)C1 (centres undefined),3,–
CC(C)(C)C(=O)N1CCCC(Oc2ccc(C(F)(F)F)cc2)(C(=O)N2CCN(c3ccccn3)CC2)C1 (centres undefined),22,–
COCC(=O)Nc1ccccc1N1CCN(C(=O)C2(Oc3ccc(C(F)(F)F)cc3)CCCN(C(=O)c3cnccc3C(F)(F)F)C2)CC1 (centres undefined),0.54,–
CN1CCN(C(=O)C2(Oc3ccc(C(F)(F)F)cc3)CCCN(C(=O)c3cnccc3C(F)(F)F)C2)CC1 (centres undefined),12,–

# Further compounds by falling IC50 [1], results first:
IC50 [1] [µM],Structure (SMILES),also measured
50,O=C(N1CCN(c2ccccn2)CC1)C1(Oc2ccc(C(F)(F)F)cc2)CCCN(S(=O)(=O)c2ccc(Cl)cc2)C1 (centres undefined),–
48,O=C(c1cnccc1C(F)(F)F)N1CCCC(Oc2ccc(-c3ccccc3)cc2)(C(=O)N2CCN(c3ccccn3)CC2)C1 (centres undefined),–
41,Cc1nc2cc(OC3(C(=O)N4CCN(c5ccccn5)CC4)CCCN(C(=O)c4cnccc4C(F)(F)F)C3)ccc2s1 (centres undefined),–
39,O=C(c1cnccc1C(F)(F)F)N1CCCC(Oc2ccc(C(F)(F)F)cc2)(C(=O)N2CCN(Cc3ccccc3)CC2)C1 (centres undefined),–
35,O=C(c1cnccc1C(F)(F)F)N1CCCC(Oc2ccc(C(F)(F)F)cc2)(C(=O)N2CCN(c3ncccn3)CC2)C1 (centres undefined),–
33,COc1ccc(OC2(C(=O)N3CCN(c4ccccn4)CC3)CCCN(C(=O)c3cnccc3C(F)(F)F)C2)cc1 (centres undefined),–
31,O=C(N1CCN(c2ccccn2)CC1)C1(Oc2ccc(C(F)(F)F)cc2)CCCN(S(=O)(=O)c2ccccc2Cl)C1 (centres undefined),–
26,O=C(N1CCN(c2ccccn2)CC1)C1(Oc2ccc(C(F)(F)F)cc2)CCCN(S(=O)(=O)c2ccccc2)C1 (centres undefined),–
23,COc1ccc(N2CCN(C(=O)C3(Oc4ccc(C(F)(F)F)cc4)CCCN(C(=O)c4cnccc4C(F)(F)F)C3)CC2)cc1 (centres undefined),–
18,O=C(c1cnccc1C(F)(F)F)N1CCCC(Oc2ccc(C(F)(F)F)cc2)(C(=O)N2CCN(c3ccncn3)CC2)C1 (centres undefined),–
14,O=C(N1CCN(c2ccccn2)CC1)C1(Oc2ccc(C(F)(F)F)cc2)CCCN(Cc2ccccc2C(F)(F)F)C1 (centres undefined),–
6.9,CC(C)(C)CCN1CCCC(Oc2ccc(C(F)(F)F)cc2)(C(=O)N2CCN(c3ccccn3)CC2)C1 (centres undefined),–
6.9,CC(C)S(=O)(=O)N1CCCC(Oc2ccc(C(F)(F)F)cc2)(C(=O)N2CCN(c3ccccn3)CC2)C1 (centres undefined),–
6.7,O=C(c1cnccc1C(F)(F)F)N1CCCC(Oc2ccc(Cl)cc2)(C(=O)N2CCN(c3ccccn3)CC2)C1 (centres undefined),–
6.5,O=C(c1ccccc1C(F)(F)F)N1CCCC(Oc2ccc(C(F)(F)F)cc2)(C(=O)N2CCN(c3ccccn3)CC2)C1 (centres undefined),–
6.5,CCCN1CCCC(Oc2ccc(C(F)(F)F)cc2)(C(=O)N2CCN(c3ccccn3)CC2)C1 (centres undefined),–
6,O=C(c1cnccc1C(F)(F)F)N1CCCC(Oc2ccc(F)cc2)(C(=O)N2CCN(c3ccccn3)CC2)C1 (centres undefined),–
5.2,O=C(c1cnccc1C(F)(F)F)N1CCCC(Oc2cccc(Cl)c2)(C(=O)N2CCN(c3ccccn3)CC2)C1 (centres undefined),–
3.7,O=C(c1cnccc1C(F)(F)F)N1CCCC(Oc2ccc(C(F)(F)F)cc2)(C(=O)N2CCC(c3ccccn3)C2)C1 (centres undefined),–
2.9,O=C(c1cnccc1C(F)(F)F)N1CCCC(Oc2ccc(Br)c(F)c2)(C(=O)N2CCN(c3ccccn3)CC2)C1 (centres undefined),–
2.3,O=C(c1cnccc1C(F)(F)F)N1CCCC(Oc2ccc(C(F)(F)F)cc2)(C(=O)N2CCN(c3ccccn3)CC2)C1 (centres undefined),–
1.9,O=C(c1cnccc1C(F)(F)F)N1CCCC(Oc2ccc(Br)cc2)(C(=O)N2CCN(c3ccccn3)CC2)C1 (centres undefined),–
1.5,O=C(c1cnccc1C(F)(F)F)N1CCCC(Oc2ccc(C(F)(F)F)cc2)(C(=O)NCc2ccc(Cl)cc2)C1 (centres undefined),–
1.4,O=C(c1cnccc1C(F)(F)F)N1CCCC(Oc2ccc(Cl)c(F)c2)(C(=O)N2CCN(c3ccccn3)CC2)C1 (centres undefined),–
0.97,O=C(c1cnccc1C(F)(F)F)N1CCCC(Oc2ccc(C(F)(F)F)cc2)(C(=O)N2CCN(c3ccccc3O)CC2)C1 (centres undefined),–
0.67,CN(C)CC(=O)Nc1ccccc1N1CCN(C(=O)C2(Oc3ccc(C(F)(F)F)cc3)CCCN(C(=O)c3cnccc3C(F)(F)F)C2)CC1 (centres undefined),–
0.63,Cc1cc(CC(=O)Nc2ccccc2N2CCN(C(=O)C3(Oc4ccc(C(F)(F)F)cc4)CCCN(C(=O)c4cnccc4C(F)(F)F)C3)CC2)on1 (centres undefined),–
0.59,CCOc1ccccc1N1CCN(C(=O)C2(Oc3ccc(C(F)(F)F)cc3)CCCN(C(=O)c3cnccc3C(F)(F)F)C2)CC1 (centres undefined),–
0.37,CCC(=O)Nc1ccccc1N1CCN(C(=O)C2(Oc3ccc(C(F)(F)F)cc3)CCCN(C(=O)c3cnccc3C(F)(F)F)C2)CC1 (centres undefined),–
0.27,O=C(CC1NC(=O)NC1=O)Nc1ccccc1N1CCN(C(=O)C2(Oc3ccc(C(F)(F)F)cc3)CCCN(C(=O)c3cnccc3C(F)(F)F)C2)CC1 (centres undefined),–
